Among the test systems are CCRF-CEM; EKVX; HCC 2998; HL-60; HOP-62; HT-29; IGROV-1; M14; MDA-MB-231; MOLT-4; NCI-H23; NCI-H522; NCI/ADR-RES; OVCAR-8; SF-268; SF-539; SNB-75; T47D; TK-10; UACC-257.
What all share (experiment): DTP human tumour cell line panel, 48 h

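How tested: cells in 96-well plates exposed to compound for 48 hours at five concentrations. GI50 = concentration required for 50% inhibition of growth.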 The source made the active and inactive calls. Rule as the data show it: active = GI50 up to about 1.1 µM and inactive = higher.

A word on the GI50: it is the concentration giving 50% growth inhibition.

On to `CC1(C)CC(=O)/C(=C/C2CCNC2=S)C(=O)N1` (centres undefined), for which the GI50 in the assay with CCRF-CEM, in the assay with EKVX, in the assay on HCC 2998, in the assay with HL-60, in the assay on HOP-62 and in the assay on HT-29 was > 100 µM (inactive) each time. Besides, the GI50 in the assay on IGROV-1, in the assay on M14, with MDA-MB-231, in the assay on MOLT-4, in the assay with NCI-H23 and in the assay with NCI-H522 was > 100 µM (inactive) in each case. The GI50 in the assay on NCI/ADR-RES, in the assay on OVCAR-8, with SF-268, in the assay with SF-539, in the assay on SNB-75 and in the assay with T47D was > 100 µM (inactive) in each case. In addition, the GI50 in the assay on TK-10 and in the assay on UACC-257 was > 100 µM (inactive) each time.

For `CC(=O)OC1CCn2c1nc1c2C(=O)C=C(N2CC2)C1=O` (centres undefined), the GI50 with CCRF-CEM is < 0.01 µM (active); in the assay with EKVX it was 1.02 µM (active); in the assay on HCC 2998, 1.45 µM (inactive); in the assay with HL-60 it was 0.17 µM (active); with HOP-62, 2.11 µM (inactive); in the assay on HT-29 it was 0.693 µM (active). Further, the GI50 in the assay with IGROV-1 was 0.449 µM (active); with M14 it was 0.0519 µM (active); in the assay with MDA-MB-231, 1.91 µM (inactive); in the assay with MOLT-4 it was 0.033 µM (active); in the assay with NCI-H23, 0.269 µM (active); with NCI-H522 it was 0.0112 µM (active). The 50% growth inhibitory concentration (GI50) with NCI/ADR-RES was 0.402 µM (active); in the assay with OVCAR-8, 0.402 µM (active); in the assay on SF-268, 0.185 µM (active); with SF-539, 0.22 µM (active); in the assay on SNB-75, 0.174 µM (active); with T47D, 0.745 µM (active). Moreover, the GI50 in the assay on TK-10 and with UACC-257 was 0.292 µM (active) each time.

As for `Cc1cc(C)cc(Nc2nnc3n2S(=O)(=O)c2cc(C)c(Cl)cc2S3)c1`, the GI50 was 0.313 µM (active) with CCRF-CEM; 11.2 µM (inactive) with EKVX; 4.8 µM (inactive) with HCC 2998; 4.17 µM (inactive) in the assay with HL-60; 7.31 µM (inactive) in the assay on HOP-62; 7.26 µM (inactive) in the assay with HT-29. For the same molecule, the GI50 in the assay on IGROV-1 was 5.43 µM (inactive); in the assay on M14, 8.09 µM (inactive); in the assay on MDA-MB-231, 4.73 µM (inactive); in the assay with MOLT-4 it was 3.08 µM (inactive); in the assay with NCI-H23 it was 2.96 µM (inactive); in the assay on NCI-H522, 3.56 µM (inactive). Moreover, the GI50 in the assay on NCI/ADR-RES is 2.99 µM (inactive); in the assay with OVCAR-8, 3.97 µM (inactive); in the assay with SF-268, 3.81 µM (inactive); in the assay with SF-539 it was 2.89 µM (inactive); with SNB-75, 3.87 µM (inactive); with T47D it was 5.69 µM (inactive). In addition, the GI50 was 10.7 µM (inactive) in the assay on TK-10 and 4.35 µM (inactive) in the assay on UACC-257.

Take `Nc1n[n+]([O-])c2cnccc2[n+]1[O-]`: the GI50 in the assay on CCRF-CEM is 8.28 µM (inactive); in the assay with HCC 2998, > 100 µM (inactive); in the assay with HL-60, 13.6 µM (inactive); in the assay on HOP-62 it was > 100 µM (inactive); in the assay on HT-29, 39.1 µM (inactive); with IGROV-1 it was 37.2 µM (inactive). The GI50 with M14 was 22.3 µM (inactive); with MDA-MB-231 it was 42.9 µM (inactive); in the assay on MOLT-4, 51.8 µM (inactive); in the assay with NCI-H23 it was 42.2 µM (inactive); in the assay on NCI-H522, > 100 µM (inactive); with NCI/ADR-RES, 78 µM (inactive). The GI50 in the assay on OVCAR-8 was 31.3 µM (inactive); with SF-268 it was 93.8 µM (inactive); with SF-539 it was 47.9 µM (inactive); in the assay with SNB-75 it was > 100 µM (inactive); with T47D, 59.7 µM (inactive); in the assay on TK-10, > 100 µM (inactive). Further, the GI50 in the assay with UACC-257 is 24 µM (inactive).

Values taken from ChEMBL document CHEMBL1201862, “PubChem BioAssay data set” (2004).
